Two compounds from patent US10513511B2, “Aqueous suspension formulation comprising 4-(4-(4-(((3R,5R)-5-((1H-1,2,4-triazol-1-yl)methyl)-5-(2,4-difluoro-phenyl)tetrahydrofuran-3-yl)methoxy)-3-methylphenyl) or a pharmaceutically acceptable salt thereof” (PULMOCIDE LIMITED, priority 2015, dated 2019) can be followed below.

Molecules are shown by their SMILES. Values after ≈ are worked out from the molar mass of the structure shown.

The subject of assay [1] is TNFα. The experiment in a line: Serum TNFα in Aspergillus fumigatus infected, immunocompromised, neutropenic mice. The format is in vivo, A/J mice. As to conditions: for TNFα in serum, % Inhibition / Conc of Biomarkers, TNFα in serum: therapeutic; for Conc of Biomarkers, TNFα in serum: mean ± SEM, N = 6. The procedure:
Aspergillus fumigatus (ATCC 13073 [strain: NIH 5233], American Type Culture Collection, Manassas, Va., USA) was grown on Malt agar (Nissui Pharmaceutical, Tokyo, Japan) plates for 6-7 days at RT (24±1° C.). Spores were aseptically dislodged from the agar plates and suspended in sterile distilled water with 0.05% Tween 80 and 0.1% agar. On the day of infection, spore counts were assessed by haemocytometer and the inoculum was adjusted to obtain a concentration of 1.67×10^8 spores mL^−1 of physiological saline. […] On day 0, animals were infected with the spore suspension (30 μL intra-nasally).
Test substances were administered intra-nasally (35 μL of a suspension (0.0032-10.0 mg/mL of drug substance in physiological saline) once daily, on days 1, 2 and 3 only (thereby representing a therapeutic treatment regimen). For extended prophylactic treatment, test compounds (35 μL of a suspension of 0.0032 or 0.016 mg/mL in physiological saline) were administered intra-nasally once daily for seven days. One group was dosed 30 min before infection on day 0 but not subsequently, while a second group was further dosed on days 1, 2 and 3 after infection. The effects of these treatment paradigms were compared with those obtained when treatment was restricted in other groups to either one day or 30 min before inoculation and then on days 1, 2 and 3 post infection in both cases. In a final group, dosing was limited still further with animals dosed twice, one day and 30 min before infection only.
Animal body weights were monitored daily and at 6 hr after the last dose of drug was administered on day 3, the animals were anesthetised, the tracheas cannulated and BALF blood and lung tissue were collected. The levels of IL-6 and TNFα in serum were determined using Quantikine® mouse IL-6 or TNF-α ELISA kit (R&D systems, Inc., Minneapolis, Minn., USA) respectively. Aspergillus GM in serum was determination using Platelia GM-EIA kits (Bio-Rad Laboratories, Redmond, Wash., USA). Cut-off index (COI) was calculated by the formula: Cut-off index=OD in sample/OD in cut-off control provided in kit. For tissue fungal load assays, 100 mg of lung tissue was removed aseptically and homogenized in 0.2 mL of 0.1% agar in sterile distilled water. Serially diluted lung homogenates were plated on Malt agar plates (50 μL/plate), and incubated at 24±1° C. for 72 to 96 h. The colonies of A. fumigatus on each plate were counted and the fungal titre presented herein as CFUs per gram of lung tissue.

Assay [2] concerns Cladosporium herbarum NCPF2564. The experiment in a line: Fungus panel screening, CLSI broth microdilution. The assay is classed as cell-based. As for the experimental part:
Fungus panel screening was conducted by Eurofins Panlabs Inc. The MIC and MIC50 values of the test articles were determined following the guidelines of the CLSI: broth microdilution methods for yeast (CLSI M27-A2), (CLSI, 2002) and for filamentous fungi (CLSI M38-A), (CLSI, 2008).
Background: Broth dilution looks for growth in wells or tubes with falling amounts of substance.

For assay [3], the system named is Aspergillus fumigatus (azole susceptible strain: NCPF2010). The assay can be described thus: Aspergillus fumigatus infection of human alveoli bilayers (transwells), azole susceptible strain. As to conditions: for MIC50 / MIC90: Aspergillus fumigatus, NCPF2010, 24 h; for MIC50: read-out: MIC50, invasion into the lower chamber in human alveoli bilayers; for MIC90: read-out: MIC90, invasion into the lower chamber in human alveoli bilayers; for GM Levels in the Lower Chamber, OD value / GM Levels in the Lower Chamber, % inhibition vs.control / DFB50: Days taken to reach a fungal burden of 50% of control: Compound (Ia) 0.1 μg/mL upper chamber, posaconazole 0.01 μg/mL lower chamber, combination of both. The format is cell-based. The procedure:
In vitro models of human alveoli, consisting of a bilayer of human alveolar epithelial cells and endothelial cells, were prepared as previously described (Hope et al., 2007). This system allows administration of a test compound to the upper (“air” space) and/or lower (“systemic” space) compartments. This flexibility has been exploited to explore the effects of combination treatment by dosing Compound (I) to the upper chamber and posaconazole or other anti-fungal agents to the lower chamber. Primary human pulmonary artery endothelial cells (HPAEC) were harvested and diluted to 10^6 cells/mL in EGM-2 media (Lonza, Basel, Switzerland). Transwells were inverted and the cell suspension (100 μL/well) applied to the base of each transwell. The inverted transwells were incubated at RT within a flow hood for 2 hr after which they were turned upright. EGM-2 media was added to the lower (700 μL/well) and upper (100 μL/well) compartments and the transwells were incubated for 48 hr (37° C., 5% CO2). The EGM-2 media in the lower compartment was then replaced with fresh EGM-2 media. A549 cells were harvested and diluted to 5×10^5 cells/mL in 10% EBM, then added to the upper compartment (100 μL/well) of all transwells and the plates incubated for 72 hr (37° C., 5% CO2). Conidia of itraconazole sensitive Aspergillus fumigatus s (NCPF2010) and itraconazole resistant (TR34-L98H) strains were cultured separately in Sabouraud dextrose agar for 3 days. A stock conidia suspension of either strain was prepared from a Sabouraud dextrose agar culture by washing with PBS-tween (10 mL; PBS containing 0.05% Tween-20, 100 U/mL Penicillin and 100 U/mL Streptomycin). The conidia count was assessed using a Neubauer haemocytometer and adjusted to 10^6 conidia/mL with PBS. A working stock of conidia was prepared in EBM (10^5 conidia/mL) immediately prior to use.
Test and reference compounds (or neat DMSO as the vehicle) were added to the appropriate wells of 24-well plates (3 μL/well containing 600 μL of 2% FBS EBM) for lower compartment treatment and to 96-well plates (1 μL/well containing 200 μL of 2% FBS EBM) for the treatment of the upper compartment, to provide a final DMSO concentration of 0.5%. The media in the upper compartment was aspirated and that containing the appropriate test and reference compounds, or vehicle, were added (100 μL/well). Transwells were then transferred into the 24-well plate containing the test and reference compounds or DMSO vehicle. After incubation for 1 hr (35° C., 5% CO2) the conidia suspension (10 μL/well) was added to the upper compartment of each transwell. Plates were then incubated for 24 hr (35° C., 5% CO2). Supernatants from each compartment (5 μL/compartment) were collected and stored (−20° C.). Media was replaced daily after collection of the supernatants and all wells were treated with test and reference compounds or with DMSO, as described above, for 3 days. Samples continued to be collected until fungal growth was visible by eye in all transwells. The levels of GM in the supernatant in lower compartment were then measured by ELISA (BioRad, CA, USA) as an index of Aspergillus fumigatus invasion.

With `Cc1cc(N2CCN(c3ccc(C(=O)N[C@H]4CCCC[C@@H]4O)cc3)CC2)ccc1OC[C@@H]1CO[C@@](Cn2cncn2)(c2ccc(F)cc2F)C1` [Compound (Ia), 4-(4-(4-(((3R,5R)-5-((1H-1,2,4-triazol-1-yl)methyl)-5-(2,4-difluorophenyl)tetrahydrofuran-3-yl)methoxy)-3-methylphenyl)piperazin-1-yl)-N-((1S,2S)-2-hydroxycyclohexyl) benzamide], the “TNFα in serum, % Inhibition” value in assay [1] (Drug Conc 3.2 μg/mL) is 20%; in assay [1] (Drug Conc 16 μg/mL), 38%; in assay [1] (Drug Conc 80 μg/mL), 87%. For the same compound, the “Conc of Biomarkers, TNFα in serum” value was determined as 28.1 ± 13.8 pg/mL in assay [1] (Drug Conc 3.2 μg/mL), 21.8 ± 14.6 pg/mL in assay [1] (Drug Conc 16 μg/mL) and 4.7 ± 1.0 pg/mL in assay [1] (Drug Conc 80 μg/mL). Moreover, the “ID50 Values for biomarkers indicated, TNFα” value in assay [1] (serum, title: Therapeutic Treatment) is 27 µg/mL. Further, the values for the MIC50 in assay [2] (50% inhibition by visual inspection (CLSI)) and in assay [3] were 0.016 µg/mL (≈ 0.0233 µM) and 0.154 µM, respectively. For the same compound, the MIC in assay [2] (100% inhibition by visual inspection (CLSI), read-out: MIC100) is 0.016 µg/mL (≈ 0.0233 µM). Moreover, in assay [3], the MIC90 amounted to 0.185 µM. Also, the “GM Levels in the Lower Chamber, OD value” in assay [3] (Day 0, NCPF2010) was 0 OD; in assay [3] (Day 1, NCPF2010) it was 0.24 OD; in assay [3] (Day 2, NCPF2010), 1.71 OD; in assay [3] (Day 3, NCPF2010) it was 1.67 OD; in assay [3] (Day 4, NCPF2010) it was 1.68 OD; in assay [3] (Day 5, NCPF2010) it was 1.63 OD. Also, the “GM Levels in the Lower Chamber, OD value” was determined as 1.57 OD in assay [3] (Day 6, NCPF2010) and 1.54 OD in assay [3] (Day 7, NCPF2010). In addition, the “GM Levels in the Lower Chamber, % inhibition vs.control” value is 66% in assay [3] (Day 1, NCPF2010); 1.5% in assay [3] (Day 2, NCPF2010); 8.6% in assay [3] (Day 3, NCPF2010); −1.6% in assay [3] (Day 4, NCPF2010); 0.2% in assay [3] (Day 5, NCPF2010); −1.8% in assay [3] (Day 6, NCPF2010). The “GM Levels in the Lower Chamber, % inhibition vs.control” value in assay [3] (Day 7, NCPF2010) was found to be 7.1%. The “DFB50: Days taken to reach a fungal burden of 50% of control” value in assay [3] (NCPF2010) is 1.04 days. In assay [3] (NCPF2010, administration to the apical chamber, 1 day post infection), the “maximum inhibition of GM levels in the bottom chamber” value is listed as “exceeding 90%”.

For the compound `CC[C@@H]([C@H](C)O)n1ncn(-c2ccc(N3CCN(c4ccc(OC[C@@H]5CO[C@@](Cn6cncn6)(c6ccc(F)cc6F)C5)cc4)CC3)cc2)c1=O` [Posaconazole, reference compound], the MIC50 in assay [3] was 0.155 µM. The MIC90 in assay [3] was determined as 0.212 µM. The “GM Levels in the Lower Chamber, OD value” in assay [3] (Day 0, NCPF2010) stood at 0 OD; in assay [3] (Day 1, NCPF2010), 0.074 OD; in assay [3] (Day 2, NCPF2010) it was 1.71 OD; in assay [3] (Day 3, NCPF2010) it was 1.70 OD; in assay [3] (Day 4, NCPF2010), 1.70 OD; in assay [3] (Day 5, NCPF2010), 1.69 OD. For the same compound, the “GM Levels in the Lower Chamber, OD value” was determined as 1.59 OD in assay [3] (Day 6, NCPF2010) and 1.62 OD in assay [3] (Day 7, NCPF2010). Besides, the “GM Levels in the Lower Chamber, % inhibition vs.control” value in assay [3] (Day 1, NCPF2010) was 89%; in assay [3] (Day 2, NCPF2010), 1.5%; in assay [3] (Day 3, NCPF2010), 7.1%; in assay [3] (Day 4, NCPF2010), −3.0%; in assay [3] (Day 5, NCPF2010) it was −3.6%; in assay [3] (Day 6, NCPF2010) it was −3.0%. For the same compound, the “GM Levels in the Lower Chamber, % inhibition vs.control” value in assay [3] (Day 7, NCPF2010) stood at 2.5%. The “DFB50: Days taken to reach a fungal burden of 50% of control” value in assay [3] (NCPF2010) is on record as 1.16 days.

By MIC50 is commonly meant the lowest concentration that inhibits either 50% of growth or 50% of the strains tested, depending on the study. Usually MIC90 stands for an inhibitory concentration at the 90% level, which refers to growth in some studies and to a panel of isolates in others.
